In US11020337B2, “Aspartyl-dipeptides for skin care and cosmetic use” (Cysal GmbH, priority 2016, dated 2021):

Key:
[1] = tested on: EpiDerm 3D-Epidermal skin models (normal human keratinocytes); experiment: MTT-Vitality-Assay, in-vitro epidermal vitality/viability; type: cell-based; details: 30 μl of 5% aqueous solution once a day
Method: (§1) Experimental application of test-products: In this study 30 μl of a 5% aqueous solution of the test substances were applied as follows using a calibrated pipette:
(§2) Application was done in duplicates (2 models) at all time points and models were cultured and analyzed in parallel under identical conditions.
(§3) EpiDerm 3D-Epidermal skin models: Nowadays in vitro test procedures are a very good alternative to animal experiments and become increasingly important for the cosmetic industry. For cosmetic products which are used over a longer period, dermatological tests for harmlessness are an essential prerequisite for a high application safety and customer satisfaction. During the development of new cosmetic products biological effects of particular active ingredients or complete formulations turn into focus of cosmetic interests. The human EpiDerm skin model is an in vitro reconstructed multilayered epithelial tissue which is cultured of normal human keratinocytes. […] The model is mitotically as well as metabolically active and expresses typical differentiation marker like pro-fillagrin 1 and cytokeratin 1/10.
This term summarizes all metabolic activities which cells need for their basic requirements as well as for growth and proliferation. An established method to measure vitality of cells and tissues is the MTT-Vitality-Assay. […] The formazan crystals precipitate into the cellular cytosol, whereby the amount of precipitate correlates quantitatively with the general cellular vitality. Therefore the MTT-Assay can be considered as an indicator for the vitality or “Fitness” of a tissue, because cellular processes like respiration and energy extraction lead to the reduction of MTT.
Aim of this experiment was to examine the potential of the test substances to vitalize the tissue. For this purpose 3D-Epidermis skin models were used. […] After incubation period the bottom of model jars were dabbed with a sterile wipe to remove excessive medium/MTT mix. Models were transferred to a new sterile 24 well plate and 2 ml isopropyl was added subsequently. To avoid evaporation, plates were sealed with parafilm, covered with tinfoil and incubated 2 h on a shaker to extract formazan crystals. Optical density of released crystals of all extracts was determined at 570 nm. Measured values were analyzed and assessed. […] The vitality was derived from averages of determined ODs whereby the water treated, optimal cultured control was set as 100% vitality [vitality: 100*(ODtest substance/ODcontrol)].

human skin [2] = experiment: In-vivo skin moisture (Corneometer CM 825); details: 4 weeks; for improvement in skin moisture, treated area: twice a day
Description: (§4) Panelists: The test panel included 5 adult female volunteers with dry skin, elasticity less than average and crow's feet wrinkles next to the eyes. At the beginning of the application test all subjects have been checked by a dermatologist. Only subjects were allowed to join the trial with no pathological skin modifications diagnosed. During the application test all subjects had in case of acute skin irritations access to daily consultations from an attending medical specialist who was accompanying the test. Daily consultations about the skin conditions through the test-accompanying medical doctor were possible.
(§5) Experimental application of test-products: Test areas were around 3 cm in diameter. The test products were applied on the volar forearm (5% and 10% aqueous solutions; skin elasticity and hydration tests) as well as the crows's feet wrinkles (5% aqueous solution). The application of the preparations have been done twice a day during the whole test period (4 weeks). The subjects have been instructed not to use other care products in this test area. Untreated skin areas were used as control.
Skin moisture: this aspect was tested using the Corneometer CM 825 (Firma Courage+Khazaka). The test products were applied twice a day on the relevant pre-determined skin areas during the application period. The test persons were acclimatized for 45 minutes at a temperature of 22 degrees centigrade and 60% relative humidity before every measurement, then, the skin measurement values were measured at three different places within the respective testing areas. The recorded values were averaged. Untreated skin close to the test area was used as the control measurement area. Measurements were taken before the application and after four weeks of application. All measurements were performed at least 10-12 hours after the last application of the formerly used product resp. the test product.

crow's feet wrinkles = experiment: In-vivo single wrinkle depth (PRIMOS optical 3D measurement); parameters: species or system human; details: 5% aqueous solution, four weeks, 5 subjects
Description: as §4
Experimental application of test-products: Test areas were around 3 cm in diameter. […]
Single wrinkles depth: Optical 3D measurement using a PRIMOS (Phaseshift Rapid In vivo Measurement Of Skin) compact portable system was used for this measurement. PRIMOS comact portable was applied on an area of 40×30 mm and digital fotos of the measured area were made. […] Finally, the measurement data generated were processed and then evaluated. […] With the PRIMOS software the changes in structure of the epidermis can be classified quantitatively with the aid of various standardized surface measurement parameters in accordance with DIN (Deutsche Industrie Norm, German industrial standards) and ISO (International Standards Organisation). […] The skinfold depth can be measured by determining the distances. […]

[3] = tested on: basal keratinocytes of 3D-Epidermal skin models; experiment: Click-iT EdU proliferation rate of basal keratinocytes; type: cell-based, human; details: topical, 30 μl of 5% aqueous solution
Method: as §1
Proliferation testing of basal Keratinocytes (Example 2): topically with air exposed models as reference and analysis time points for proliferation rate after 3 and 6 days.
as §2
as §3, with “1/10. […]” for “1/10.”
Evaluation of the proliferation rate: Out of every used skin model, 6 mm punch biopsies were taken, embedded in O.C.T.™, cryoconserved in the gaseous phase of liquid nitrogen and subsequently cut into 5-6 μm sections. Nuclei from every section were counted (blue fluorescence, DAPI) and the percentage of proliferating nuclei (red fluorescence) was determined.
Fluorescence microscopy: Click-iT®-EdU tagged cells were stained in red (λex 594 nm). […] Click-iT®-EdU and DAPI stained cells were recorded solely and merged subsequently. The fluorescence analysis and documentation was performed with the ZEISS, Axio Scope A1HAL 100. […]

human skin [4] = experiment: In-vivo skin elasticity test (cutometer MPA 580, R2-values); details: 4 weeks; for improvement in skin elasticity, treated area: twice a day
Description: as §4, §5
Elasticity test: The test was performed with the cutometer MPA 580 Fa. Courage+Khazaka electronics GmbH. The principle of measurement is based on the suction/elongation principle. To obtain start conditions the instrument was adjusted for 450 mbar low pressure. The suction time was defined to 5 secs. The relaxation time (abrupt loss of low pressure) was fixed to 3 secs. All measurements have been repeated three times for each test and control areas. Afterwards a mean for R2-values obtained from three independent measurements per area has been calculated. To perform measurements the instrument was adjusted for the named parameters before the test was started. All parameter adjustments described in literature as mainly used and reliable remained unchanged during the measurements. The cutometry has been performed at the beginning and at the end of the application period. R2-values have been measured and analyzed for each subject.

[5] = crow's feet (next to the eye), 5% aqueous solution
[6] = crow's feet (next to the eyes), 5% aqueous solution
[7] = volar forearm, 5% aqueous solution
[8] = volar forearm, 10% aqueous solution
[9] = 3 days incubation, air exposed models 11.21%
[10] = crow's feet area, 5% aqueous solution

In the case of `N=C(N)NCCC[C@H](NC(=O)C[C@H](N)C(=O)O)C(=O)O` [β-L-aspartyl-L-arginine], the “vitality (MTT, water treated control = 100%)” value ([1]; 48 h systematical (systemic) incubation, FIG. 1) is reported as 127.23%, the “vitality (MTT, water treated control = 100%)” value ([1]; 48 h topical application, FIG. 2) is reported as 112.36% and the “vitality (MTT, water treated control = 100%)” value ([1]; 120 h systemical incubation, FIG. 3) is reported as 118.16%. For the same molecule, the “vitality (MTT, water treated control = 100%)” value ([1]; 120 h topical application, FIG. 4) was 120.61%, the “improvement in skin moisture, treated area” value (human skin [2]; [5]) was “about 1.873%” and the “average improvement in skin moisture after control area deduction” value (“average improvement in skin moisture” below) (human skin [2]; [6]) was 1.56%. The “average improvement in skin moisture” value (human skin [2]; [7]) was 0.82%, the “improvement in skin moisture, treated area” value (human skin [2]; [7]) was “about 1.126%” and the “average improvement in skin moisture” value (human skin [2]; [8]) was 0.56%. For the same molecule, the “improvement in skin moisture, treated area” value (human skin [2]; [8]) was about 0.871%, the “average improvement in the wrinkle depth” value (crow's feet wrinkles) was 16.4% and the “percentage of proliferative cells (nuclei)” value (from here on “percentage”) [3, 9] was 30.98%. For the same molecule, the “average improvement in skin elasticity after control area deduction” value (shortened to “average improvement in skin elasticity”) (human skin [4]; [10]) was 8.08%, the “average improvement in skin elasticity” value (human skin [4]; forearm, 5% aqueous solution) was 9.26% and the “average improvement in skin elasticity” value (human skin [4]; forearm, 10% aqueous solution) was 8.85%. The “improvement in skin elasticity, treated area” value (human skin [4]; [7]) was “about 9.11%” and the “improvement in skin elasticity, treated area” value (human skin [4]; [8]) was about 8.70%.
With `NCCCC[C@H](NC(=O)C[C@H](N)C(=O)O)C(=O)O` [β-L-aspartyl-L-lysine] the “improvement in skin moisture, treated area” value (human skin [2]; [5]) was “about 16.10%”, the “average improvement in skin moisture” value (human skin [2]; [6]) was 15.79% and the “average improvement in skin moisture” value (human skin [2]; [7]) was 1.74%. The “improvement in skin moisture, treated area” value (human skin [2]; [7]) was “about 2.05%”, the “average improvement in the wrinkle depth” value (crow's feet wrinkles) was 20.02% and the “percentage” value [3, 9] was 16.33%. For the same molecule, the “percentage” value ([3]; 6 days incubation, air exposed models 17.11%) was 22.12%, the “average improvement in skin elasticity” value (human skin [4]; [10]) was 11.21% and the “improvement in skin elasticity, treated area” value (human skin [4]; crow's feet, 5% aqueous solution) was 11.06%. For the same molecule, the “average improvement in skin elasticity” value (human skin [4]; forearm, 5% aqueous solution) was 6.18% and the “improvement in skin elasticity, treated area” value (human skin [4]; [7]) was “about 6.03%”.
